Reference: patent publication US7531554B2, “4-oxoquinoline compound and use thereof as HIV integrase inhibitor” (Japan Tobacco Inc., priority 2004, dated 2009)
Structures can show the parent of a compound that is named as a salt.

target: T1, HIV integrase (Human immunodeficiency virus type 1 group M subtype B, UniProt P12497, F1332H); test: Determination of enzyme (HIV integrase) inhibitory activity; type: biochemical; details: recombinant integrase protein (F185H), donor DNA/target DNA, absorbance at 450 nm
T1 construct: HIV integrase full length gene (J. Virol., 67, 425-437 (1993)) in which phenylalanine at codon 185 was substituted by histidine; made in house; host or cells: Escherichia coli BL21(DE3)
Summary of the method: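 Full-length HIV integrase bearing F185H mutation, E. coli-expressed and purified, preincubated with compound on plate-bound biotinylated donor DNA for 60 min at 37 °C; digoxigenin-labelled target DNA then added for 10 min. Strand transfer detected by peroxidase anti-digoxigenin ELISA at 450 nm; IC50 from inhibition versus no-compound and no-enzyme controls.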

SMILES | IC50
CC(C)[C@@H](CO)n1cc(C(=O)O)c(=O)c2cc(Cc3cccc(Cl)c3F)c(N3CCN[C@H](C)C3)cc21 [Example 4-29, 6-(3-chloro-2-fluorobenzyl)-1-((1S)-1-(hydroxymethyl)-2-methylpropyl)-7-((3R)-3-methylpiperazin-1-yl)-4-oxo-1,4-dihydroquinoline-3-carboxylic acid] | 5.1 nM
CC(C)[C@@H](CO)n1cc(C(=O)O)c(=O)c2cc(Cc3cccc(Cl)c3F)c(OCCCCO)cc21 [Example 4-5, 6-(3-chloro-2-fluorobenzyl)-7-(4-hydroxybutoxy)-1-((1S)-1-(hydroxymethyl)-2-methylpropyl)-4-oxo-1,4-dihydroquinoline-3-carboxylic acid] | 3.4 nM
CC(C)[C@@H](CO)n1cc(C(=O)O)c(=O)c2cc(Cc3cccc(Cl)c3F)c(O[C@H]3CCN(C)C3)cc21 [Example 4-54, 6-(3-chloro-2-fluorobenzyl)-1-((1S)-1-(hydroxymethyl)-2-methylpropyl)-7-((3S)-1-methylpyrrolidin-3-yloxy)-4-oxo-1,4-dihydroquinoline-3-carboxylic acid trifluoroacetate] | 7.1 nM
COCCCOc1cc2c(cc1Cc1cccc(Cl)c1F)c(=O)c(C(=O)O)cn2[C@H](CO)C(C)C [Example 4-8, 6-(3-chloro-2-fluorobenzyl)-1-((1S)-1-(hydroxymethyl)-2-methylpropyl)-7-(3-methoxypropoxy)-4-oxo-1,4-dihydroquinoline-3-carboxylic acid] | 4.7 nM
CC(C)[C@H]1COc2cc(Cc3cccc(Cl)c3F)cc3c(=O)c(C(=O)O)cn1c23 [Example 5-1, (3S)-8-(3-chloro-2-fluorobenzyl)-3-isopropyl-6-oxo-2,3-dihydro-6H-1-oxa-3a-aza-phenalene-5-carboxylic acid] | 160 nM
COc1cc2c(cc1Cc1cccc(Cl)c1F)c(=O)c(C(=O)O)cn2[C@H](CO)CCSC [Example 2-12, 6-(3-chloro-2-fluorobenzyl)-1-((1S)-1-(hydroxymethyl)-3-(methylthio)propyl)-7-methoxy-4-oxo-1,4-dihydroquinoline-3-carboxylic acid] | 5.7 nM
CC(C)[C@@H](CO)n1cc(C(=O)O)c(=O)c2cc(Cc3cccc(Cl)c3F)c(OCCNS(C)(=O)=O)cc21 [Example 4-49, 6-(3-chloro-2-fluorobenzyl)-1-((1S)-1-(hydroxymethyl)-2-methylpropyl)-7-(2-(mesylamino)ethoxy)-4-oxo-1,4-dihydroquinoline-3-carboxylic acid] | 5.1 nM
CC(C)[C@@H](CO)n1cc(C(=O)O)c(=O)c2cc(Cc3cccc(Cl)c3F)c(O[C@H]3CCOC3)cc21 [Example 4-47, 6-(3-chloro-2-fluorobenzyl)-1-((1S)-1-(hydroxymethyl)-2-methylpropyl)-4-oxo-7-((3S)-tetrahydrofuran-3-yloxy)-1,4-dihydroquinoline-3-carboxylic acid] | 6.6 nM
CC(C)[C@@H](CO)n1cc(C(=O)O)c(=O)c2cc(Cc3cccc(Cl)c3F)c(OCc3cccnc3)cc21 [Example 4-61, 6-(3-chloro-2-fluorobenzyl)-1-((1S)-1-(hydroxymethyl)-2-methylpropyl)-4-oxo-7-(pyridin-3-ylmethoxy)-1,4-dihydroquinoline-3-carboxylic acid] | 4.9 nM
COc1cc2c(cc1C(O)c1cccc(Cl)c1F)c(=O)c(C(=O)O)cn2[C@H](CO)C(C)C (single isomer, unassigned) [Example 7-7] | 17 nM
COc1cc2c(cc1Cc1cc(O)cc(Cl)c1F)c(=O)c(C(=O)O)cn2[C@H](CO)C(C)C [Example 1-6, 6-(3-chloro-2-fluoro-5-hydroxybenzyl)-1-((1S)-1-(hydroxymethyl)-2-methylpropyl)-7-methoxy-4-oxo-1,4-dihydroquinoline-3-carboxylic acid] | 4.6 nM
CC(C)[C@@H](CO)n1cc(C(=O)O)c(=O)c2cc(Cc3cccc(Cl)c3F)c(OCc3ccc(C#N)cc3)cc21 [Example 4-56, 6-(3-chloro-2-fluorobenzyl)-7-(4-cyanobenzyloxy)-1-((1S)-1-(hydroxymethyl)-2-methylpropyl)-4-oxo-1,4-dihydroquinoline-3-carboxylic acid] | 5 nM
COc1cc2c(cc1Cc1cccc(Cl)c1F)c(=O)c(C(=O)O)cn2[C@H](CO)CSC [Example 2-3, 6-(3-chloro-2-fluorobenzyl)-1-((1R)-1-(hydroxymethyl)-2-(methylthio)ethyl)-7-methoxy-4-oxo-1,4-dihydroquinoline-3-carboxylic acid] | 6.8 nM
CC(C)[C@@H](CO)n1cc(C(=O)O)c(=O)c2cc(Cc3cccc(Cl)c3F)c(N3CCNCC3)cc21 [Example 4-12, 6-(3-chloro-2-fluorobenzyl)-1-((1S)-1-(hydroxymethyl)-2-methylpropyl)-4-oxo-7-(piperazin-1-yl)-1,4-dihydroquinoline-3-carboxylic acid] | 7.3 nM
CC(C)[C@@H](CO)n1cc(C(=O)O)c(=O)c2cc(Cc3cccc(Cl)c3F)c(Oc3cccnc3)cc21 [Example 4-20, 6-(3-chloro-2-fluorobenzyl)-1-((1S)-1-(hydroxymethyl)-2-methylpropyl)-4-oxo-7-(pyridin-3-yloxy)-1,4-dihydroquinoline-3-carboxylic acid hydrochloride] | 9.3 nM
CC(C)[C@@H](CO)n1cc(C(=O)O)c(=O)c2cc(Cc3cccc(Cl)c3F)c(NC3CCNCC3)cc21 [Example 4-42, 6-(3-chloro-2-fluorobenzyl)-1-((1S)-1-(hydroxymethyl)-2-methylpropyl)-4-oxo-7-(piperidin-4-ylamino)-1,4-dihydroquinoline-3-carboxylic acid] | 7.9 nM
CC(C)(C)[C@@H](CO)n1cc(C(=O)O)c(=O)c2cc(Cc3cccc(Cl)c3F)c(N3CCOCC3)cc21 [Example 7-6, 6-(3-chloro-2-fluorobenzyl)-1-((1S)-2,2-dimethyl-1-(hydroxymethyl)propyl)-7-(morpholin-4-yl)-4-oxo-1,4-dihydroquinoline-3-carboxylic acid] | 4.3 nM
COCCOc1cc2c(cc1Cc1cccc(Cl)c1F)c(=O)c(C(=O)O)cn2[C@H](CO)C(C)C [Example 4-1, 6-(3-chloro-2-fluorobenzyl)-1-((1S)-1-(hydroxymethyl)-2-methylpropyl)-7-(2-methoxyethoxy)-4-oxo-1,4-dihydroquinoline-3-carboxylic acid] | 4.4 nM
COc1cc2c(cc1Cc1cccc(Cl)c1F)c(=O)c(C(=O)O)cn2[C@H](CO)C(C)(C)S(C)(=O)=O [Example 2-6, 6-(3-chloro-2-fluorobenzyl)-1-((1R)-1-(hydroxymethyl)-2-mesyl-2-methylpropyl)-7-methoxy-4-oxo-1,4-dihydroquinoline-3-carboxylic acid] | 3.8 nM
CC(C)[C@@H](CO)n1cc(C(=O)O)c(=O)c2cc(Cc3cccc(Cl)c3F)c(OCCCCN(C)C)cc21 [Example 4-7, 6-(3-chloro-2-fluorobenzyl)-7-(4-(dimethylamino)butoxy)-1-((1S)-1-(hydroxymethyl)-2-methylpropyl)-4-oxo-1,4-dihydroquinoline-3-carboxylic acid] | 5 nM
CC(=O)N[C@@H]1CCN(c2cc3c(cc2Cc2cccc(Cl)c2F)c(=O)c(C(=O)O)cn3[C@H](CO)C(C)C)C1 [Example 4-27, 7-((3R)-3-(acetylamino)pyrrolidin-1-yl)-6-(3-chloro-2-fluorobenzyl)-1-((1S)-1-(hydroxymethyl)-2-methylpropyl)-4-oxo-1,4-dihydroquinoline-3-carboxylic acid] | 16 nM
CS(=O)(=O)CC[C@@H](CO)n1cc(C(=O)O)c(=O)c2cc(Cc3cccc(Cl)c3F)ccc21 [Example 2-17, 6-(3-chloro-2-fluorobenzyl)-1-((1S)-1-(hydroxymethyl)-3-mesylpropyl)-4-oxo-1,4-dihydroquinoline-3-carboxylic acid] | 14 nM
COc1cc2c(cc1Cc1ccc(F)cc1C(F)(F)F)c(=O)c(C(=O)O)cn2[C@H](CO)C(C)C [Example 1-10, 6-(4-fluoro-2-(trifluoromethyl)benzyl)-1-((1S)-1-(hydroxymethyl)-2-methylpropyl)-7-methoxy-4-oxo-1,4-dihydroquinoline-3-carboxylic acid] | 280 nM
CC(C)[C@@H](CO)n1cc(C(=O)O)c(=O)c2cc(Cc3cccc(Cl)c3F)c(OCCCCN)cc21 [Example 4-34, 7-(4-aminobutoxy)-6-(3-chloro-2-fluorobenzyl)-1-((1S)-1-(hydroxymethyl)-2-methylpropyl)-4-oxo-1,4-dihydroquinoline-3-carboxylic acid hydrochloride] | 3.9 nM
COc1cc2c(cc1Cc1ccc(O)c(Cl)c1F)c(=O)c(C(=O)O)cn2[C@H](CO)C(C)C [Example 1-4, 6-(3-chloro-2-fluoro-4-hydroxybenzyl)-1-((1S)-1-(hydroxymethyl)-2-methylpropyl)-7-methoxy-4-oxo-1,4-dihydroquinoline-3-carboxylic acid] | 25 nM
COc1cc2c(cc1Cc1ccc(F)c(Cl)c1)c(=O)c(C(=O)O)cn2[C@H](CO)C(C)C [Example 1-1, 6-(3-chloro-4-fluorobenzyl)-1-((1S)-1-(hydroxymethyl)-2-methylpropyl)-7-methoxy-4-oxo-1,4-dihydroquinoline-3-carboxylic acid] | 19 nM
CSC[C@@H](CO)n1cc(C(=O)O)c(=O)c2cc(Cc3cccc(Cl)c3F)ccc21 [Example 2-7, 6-(3-chloro-2-fluorobenzyl)-1-((1R)-1-(hydroxymethyl)-2-(methylthio)ethyl)-4-oxo-1,4-dihydroquinoline-3-carboxylic acid] | 8.1 nM
COc1cc2c(cc1Cc1c(F)ccc(Cl)c1F)c(=O)c(C(=O)O)cn2[C@H](CO)C(C)C [Example 1-2, 6-(3-chloro-2,6-difluorobenzyl)-1-((1S)-1-(hydroxymethyl)-2-methylpropyl)-7-methoxy-4-oxo-1,4-dihydroquinoline-3-carboxylic acid] | 3.8 nM
